Values quoted from earlier work as cited in patent publication US10568927B2, “Methods and compositions comprising desmopressin in combination with a beta-3-adrenergic receptor agonist” (Serenity Pharmaceuticals, LLC, priority 2013, dated 2020).

Details: human, in vivo

## NC(=O)CC[C@@H]1NC(=O)[C@H](Cc2ccccc2)NC(=O)[C@H](Cc2ccc(O)cc2)NC(=O)CCSSC[C@@H](C(=O)N2CCC[C@H]2C(=O)N[C@H](CCCN=C(N)N)C(=O)NCC(N)=O)NC(=O)[C@H](CC(N)=O)NC1=O [desmopressin, 1-desamino-8-D-arginine vasopressin]
  half-life (known clearance rate): 1.5 to 2.0 h
